Melting point data for 58 compounds are collected here from a melting point compilation (Tetko et al.; mined from patent text by program, amines drawn as free bases though some values may be those of a salt).

Structures are written as SMILES. Some results are limits rather than exact numbers.

A word on the melting point: it is the temperature, or range, at which the solid turns liquid. As to `NS(=O)(=O)c1ccc(-c2cn(-c3nc(-c4cccc(Cl)c4)cc(C(F)(F)F)n3)cn2)s1`, the melting point worked out at 280 °C.

As to `O=C(CCCCC1CCSS1)NO` (stereo not drawn), the melting point lay within 63 to 64 °C.

Compound `Cc1c(-c2ccncc2)oc2c1C(=O)CCC2` displayed a melting point of 136 to 138 °C.

Turning to `O=C1CCC(N2C(=O)c3cccc(OCc4ccc(CN5CCN(CC(F)(F)F)CC5)cc4)c3C2=O)C(=O)N1` (stereo not drawn), the melting point is 163 to 165 °C.

In turn, `COC(=O)c1ccc(-c2nc(-c3ccc(Br)cc3)cs2)cc1` displayed a melting point of 206 to 207 °C.

Compound `CCc1c(Oc2ccc(C(F)(F)F)cc2[N+](=O)[O-])n[nH]c1C` displayed a melting point of 92 to 93 °C.

Turning to `CC(C)c1ccc(S(=O)(=O)n2c(Cc3ccc(C(=O)O)c(O)c3)cc3cc(Cl)ccc32)cc1`, the melting point is 139 °C.

As to `COc1ccc(CS[C@@H]2CN[C@H](C(N)=O)C2)cc1`, the melting point lay in the range of 120 to 121 °C.

For the compound `CC(C)=NOCc1nc2c(N)nc3ccccc3c2n1CCCNS(C)(=O)=O`, the melting point was in the range of 178 to 179 °C.

For `CC(=O)Nc1ccc(CNC(=O)c2ccccc2)cc1`, the melting point lay in the range of 175 to 177 °C.

Compound `Cc1c(-c2ccc(C3CCCCC3)cc2)nc2ccc(F)cc2c1C(=O)O` had a melting point of 316 to 323 °C.

`CC(C)(C)c1cc(CC(Cc2cc(C(C)(C)C)c(O)c(C(C)(C)C)c2)(Cc2cc(C(C)(C)C)c(O)c(C(C)(C)C)c2)[N+](=O)[O-])cc(C(C)(C)C)c1O`: the melting point fell in the range of 199 to 201 °C.

In turn, `CC(C)c1cc(Oc2ccc(Cl)c(Cl)c2)nc(C(C)C)c1N=CN(C)C` gave a melting point of 102 to 103 °C.

Regarding `NC1CCN(c2nc3c(cc2F)c(=O)c(C(=O)O)cn3CCF)C1` (stereo not drawn), the melting point lay in the range of 251 to 255 °C.

Consider `CN(C)c1ccc(C(O)C#Cc2ccncc2)cc1` (stereo not drawn), for which the melting point is 117 °C.

`Cc1nc2cc(CCCN3C(=O)c4ccccc4C3=O)ccc2s1` displayed a melting point of 126 °C.

As for `C=CCc1c(O)ccc2c1ccc(=O)n2CC=C(C)C`, the melting point was 224 to 228 °C.

In the case of `Cc1nc(CN)c2n1-c1ccc(Cl)cc1C(c1ccccc1)=NC2`, the melting point was 217 to 219 °C.

The compound `O=C(O)C(CCN1C(=O)c2ccccc2C1=O)Oc1c(Br)cc(-c2ccc(-c3c(Cc4ccccc4)sc4ccccc34)cc2)cc1Br` (stereo not drawn) displayed a melting point of 113 to 115 °C.

In the case of `CCCCN(c1nc(N(CC)CC)nc(N(CCCC)C2CC(C)(C)NC(C)(C)C2)n1)C1CC(C)(C)NC(C)(C)C1`, the melting point lay within 74 to 76 °C.

As to `O=[N+]([O-])c1ccc(C=NNC2O[C@H](COCc3ccccc3)[C@@H](OCc3ccccc3)[C@H]2OCc2ccccc2)cc1` (stereo partly drawn), the melting point came to 93 °C.

The compound `Nc1cccc(OCCCN2CCC(c3noc4cc(F)ccc34)CC2)c1` had a melting point of 115 to 117 °C.

Regarding `CCn1c(COCc2ccccc2)nc(C(C)C)c1Sc1cccc(F)c1`, the melting point is 88 to 90 °C.

For `CCC(=O)C1=C(O)CC(c2ccc3c(c2)OCCO3)CC1=O` (stereo not drawn), the melting point is 155 °C.

`CN1CCN(CCOc2ccccc2CC(=O)N2C[C@@H]3C(=O)CCC(c4ccccc4)(c4ccccc4)[C@@H]3C2)CC1` (racemic) showed a melting point of 78 °C.

Consider `Nc1ccc(P(=O)(O)O)cc1`, for which the melting point is 257 to 260 °C.

The compound `CC(C)C[C@@H](C(=O)OC(C)(C)C)N1C(=O)NC(C(F)(F)F)(C(F)(F)F)C1=O` showed a melting point of 105 to 106 °C.

For the compound `CC(C)(CCl)C(=O)N(O)c1ccccc1`, the melting point fell in the range of 120 to 121 °C.

In the case of `O=S(=O)(Nc1cc(Cl)c(Cl)cc1Cl)C(F)(F)F`, the melting point is 104 to 106 °C.

As for `Cc1nn(C)c2nc(-c3ccncc3)nc(N)c12`, the melting point lay within 235 to 236 °C.

The compound `Cc1cc(F)ccc1-c1nc(NCC(F)(F)F)nc2c1ccc(=O)n2-c1ccccc1F` displayed a melting point of 187 to 188 °C.

In the case of `O=C(O)c1cn(CCO)c2cc(Cl)c(F)cc2c1=O`, the melting point was 266 °C.

For the compound `CCc1nc2c(C)nc(C)cc2n1-c1ccc(CCNC(=O)NS(=O)(=O)c2ccc(C)cc2)cc1`, the melting point came to 143 °C.

With `CCOC(=O)c1ccc(/C=C(\C)c2ccc(OC)c(C(C)(C)C)c2)cc1`, the melting point worked out at 71.5 °C.

The compound `CON1C(C)(C)CC(CCCCNc2nc(N)nc(NCCCCC3CC(C)(C)N(OC)C(C)(C)C3)n2)CC1(C)C` yielded a melting point of 163 to 165 °C.

`O=c1oc(-c2ccc(CCc3ccccc3)cc2)cc(O)c1SCCc1ccccc1` gave a melting point of 122 to 123 °C.

As to `Cc1ccc(C2=Cc3cc(C)c(C)cc3C2)cc1`, the melting point lay in the range of 227 to 228 °C.

Regarding `CN(C(=O)c1ccc(Cn2cnc3ncnc-3c2)cc1)C1CCCCC1`, the melting point was 229 to 230 °C.

The compound `CCOC(=O)Cc1ccc(-c2cn3cccnc3n2)cc1` yielded a melting point of 155 to 158 °C.

As for `CC(C)(C)OC(=O)NC1CCCOCC=CC2CC2(C(=O)NS(=O)(=O)C2CC2)NC(=O)C2CC(OC(=O)NCC3CCCCC3)CN2C1=O` (stereo not drawn), the melting point fell in the range of 142 to 144 °C.

`CCOC1CC2(C)C(CCC3C4CC(C)C(C(C)=O)C4(C)CC(=O)C32)CC1O` (stereo not drawn) returned a melting point of 178 to 179 °C.

The compound `CS(=O)(=O)c1ccc(-c2cnn(CC(=O)c3ccc(Cl)cc3)c(=O)c2-c2ccc(F)cc2)cc1` displayed a melting point of 186 to 188 °C.

For `CCCNC(=O)N(C)Cc1cccc2c1C(=O)N(C1CCC(=O)NC1=O)C2=O` (stereo not drawn), the melting point lay within 210 to 212 °C.

Regarding `COc1cc(C=CC(=O)c2cc(OC)c(OC)c(OC)c2)cc([N+](=O)[O-])c1O`, the melting point lay within 123 to 125 °C.

`CCc1cc(C(=O)c2ccccc2Cl)c(-n2c(CNC(=O)c3ccc(Cl)c(Cl)c3)nnc2C2CCCCC2)s1` displayed a melting point of 206 to 208 °C.

Regarding `NC(=O)CNC(=O)c1cccc(-c2cccc3cc(Cc4cc(F)cc(C(F)(F)F)c4)sc23)c1`, the melting point lay in the range of 169 to 170 °C.

For `CCCc1c(SCCCOc2ccc(C(C)=O)c(OCCCC(=O)O)c2CCC)ccc(C(C)=O)c1O`, the melting point fell in the range of 79 to 81 °C.

The compound `CC(C)(CC(=O)C(=O)Nc1ccc2c(c1Br)COC2=O)c1ccccc1` came in with a melting point of 150 to 152 °C.

Turning to `O=C1OC2(CCC(N3CCN(c4ccc(F)cc4)CC3)CC2)c2cc(F)ccc21` (stereo not drawn), the melting point was over 250 °C.

Regarding `COC(=O)c1cc(C)c(C(=O)OC)c(OC)c1`, the melting point fell in the range of 98 to 99 °C.

Compound `CC(C)(CC(=O)c1ccc2c(c1)CC(N1C(=O)c3ccccc3C1=O)C2)C(=O)O` (stereo not drawn) displayed a melting point of 238 to 240 °C.

Regarding `O=CCC1Cc2ccc(Br)cc2C1=O` (racemic), the melting point came to 84 °C.

As to `CC(=O)C(=C1SCCCN1Br)[N+](=O)[O-]`, the melting point was 101 to 104 °C.

For the compound `OCCCn1c(-c2c(Cl)cccc2Cl)nc(-c2ccncc2)c1-c1ccc(Cl)cc1`, the melting point was 233 to 235 °C.

`O=C(NO)c1cnc(N2CCN(S(=O)(=O)c3ccc(C(=O)Nc4ccc(Cl)c(-c5ccccn5)c4)cc3Cl)CC2)nc1` had a melting point of 159 °C.

`O=C(Nc1ccc(Oc2ccnc(N3CCC(O)CC3)n2)c2ccccc12)c1cc(F)cc(N2CCOCC2)c1` registered a melting point of 106 to 108 °C.

The compound `CC[C@H](C)[C@H](NC(=O)Nc1cccc(C)c1)C(=O)N[C@H](CO)Cc1c[nH]c2ccccc12` registered a melting point of 185 to 186 °C.

For the compound `O=C(O)C(Cc1ccccc1)Oc1ccc2cc(-c3oc4ccccc4c3Br)ccc2c1Br` (stereo not drawn), the melting point was 206 to 209 °C.
